The results in this text go back to ChEMBL document CHEMBL4477264, “Amino acid amides of piperic acid (PA) and 4-ethylpiperic acid (EPA) as NorA efflux pump inhibitors of Staphylococcus aureus” (2016).

For orientation: MIC means the least concentration at which growth counts as inhibited.

Where only a bound is given, the exact number is not on record here.

The target in one experiment is T1, Quinolone resistance protein NorA (Staphylococcus aureus) (UniProt P0A0J7).
T1 sequence (whole entry): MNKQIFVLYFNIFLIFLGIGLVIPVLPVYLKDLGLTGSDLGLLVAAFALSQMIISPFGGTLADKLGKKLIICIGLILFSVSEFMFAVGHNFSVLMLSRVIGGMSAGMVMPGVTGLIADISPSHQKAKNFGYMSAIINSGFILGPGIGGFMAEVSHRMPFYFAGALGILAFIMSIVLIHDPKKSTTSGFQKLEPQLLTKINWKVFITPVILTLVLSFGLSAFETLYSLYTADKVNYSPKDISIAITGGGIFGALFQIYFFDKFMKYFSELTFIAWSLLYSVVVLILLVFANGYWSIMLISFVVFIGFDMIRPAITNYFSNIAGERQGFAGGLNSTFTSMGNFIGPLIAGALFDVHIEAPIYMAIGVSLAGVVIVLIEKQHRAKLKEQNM
As to the kind of experiment: Inhibition of NorA efflux pump overexpressed in Staphylococcus aureus 1199B assessed as fold reduction in ciprofloxacin MIC at 12.5 ug/ml measured after 24 hrs by broth checkerboard method.
As to `CCC(/C=C/C(=O)O)=C\c1ccc2c(c1)OCO2`, the fold change (FC) was determined as 0.
Consider `CCC(/C=C/C(=O)NCC1(CC(=O)OC)CCCCC1)=C\c1ccc2c(c1)OCO2`, for which the fold change (FC) came out at 2.
With `CCC(/C=C/C(=O)NC1(CC(=O)OC)CCC(C(C)(C)C)CC1)=C\c1ccc2c(c1)OCO2` (stereo unspecified), the fold change (FC) is 0.
Same read-out and setting: with `CCC(/C=C/C(=O)NC1(CC(=O)OC)CCCCC1)=C\c1ccc2c(c1)OCO2` the figure was 2; with `CCC(/C=C/C(=O)N[C@H](C(=O)OC)C(C)C)=C\c1ccc2c(c1)OCO2`, 0.
`O=C(O)/C=C/C=C/c1ccc2c(c1)OCO2` [PIPERIC ACID]: the fold change (FC) is 0.
For `CCC(/C=C/C(=O)NC1(CC(=O)OC)CCC(CC)CC1)=C\c1ccc2c(c1)OCO2` (stereo unspecified), the fold change (FC) was determined as 0.
For `CCC(/C=C/C(=O)N[C@@H](C)C(=O)OC)=C\c1ccc2c(c1)OCO2`, the fold change (FC) worked out at 0.
On the same count and under the same terms, with `CCC(/C=C/C(=O)N[C@@H](CC(C)C)C(=O)OC)=C\c1ccc2c(c1)OCO2` the figure was 0.
On the same count and under the same terms, with `COC(=O)CC1(NC(=O)/C=C/C=C/c2ccc3c(c2)OCO3)CCC(C(C)(C)C)CC1` (stereo unspecified) the figure was 0.

The subject of another experiment is Staphylococcus aureus. As to the kind of experiment: Antibacterial activity against wild-type Staphylococcus aureus 1199 expressing NorA efflux pump measured at every 3 mins interval for 30 mins by fluorescence analysis. Type of experiment: functional.
`CCC(/C=C/C(=O)N[C@@H](Cc1c[nH]c2ccccc12)C(=O)OC)=C\c1ccc2c(c1)OCO2` gave an MIC greater than 50 µg/mL.

A further experiment has as its target T1, Quinolone resistance protein NorA (Staphylococcus aureus). Briefly: Inhibition of NorA efflux pump overexpressed in Staphylococcus aureus 1199B assessed as concentration required for four-fold reduction in ciprofloxacin MIC measured after 24 hrs by broth checkerboard method relative to control.
With `CCC(/C=C/C(=O)O)=C\c1ccc2c(c1)OCO2`, the MEC was greater than 50 µg/mL.
On the same count and under the same terms, with `CCC(/C=C/C(=O)NCC1(CC(=O)OC)CCCCC1)=C\c1ccc2c(c1)OCO2` the figure was 25 µg/mL; with `CCC(/C=C/C(=O)NC1(CC(=O)OC)CCC(C(C)(C)C)CC1)=C\c1ccc2c(c1)OCO2` (stereo unspecified), greater than 50 µg/mL; with `CCC(/C=C/C(=O)NC1(CC(=O)OC)CCCCC1)=C\c1ccc2c(c1)OCO2`, 50 µg/mL.
As to `CCC(/C=C/C(=O)N[C@H](C(=O)OC)C(C)C)=C\c1ccc2c(c1)OCO2`, the MEC is greater than 50 µg/mL.
For the compound `O=C(O)/C=C/C=C/c1ccc2c(c1)OCO2` [PIPERIC ACID], the MEC is greater than 50 µg/mL.
Same read-out and setting: for `CCC(/C=C/C(=O)NC1(CC(=O)OC)CCC(CC)CC1)=C\c1ccc2c(c1)OCO2` (stereo unspecified) the value was greater than 50 µg/mL.
Same read-out and setting: with `CCC(/C=C/C(=O)N[C@@H](C)C(=O)OC)=C\c1ccc2c(c1)OCO2` the figure was greater than 50 µg/mL; with `CCC(/C=C/C(=O)N[C@@H](CC(C)C)C(=O)OC)=C\c1ccc2c(c1)OCO2`, greater than 50 µg/mL.
Turning to `COC(=O)CC1(NC(=O)/C=C/C=C/c2ccc3c(c2)OCO3)CCC(C(C)(C)C)CC1` (stereo unspecified), the MEC is greater than 50 µg/mL.

For another experiment, the system named is Staphylococcus aureus. Briefly: Antibacterial activity against Staphylococcus aureus 1199B overexpressing NorA efflux pump measured after 24 hrs by broth checkerboard method. Type of experiment: functional.
Consider `CCC(/C=C/C(=O)O)=C\c1ccc2c(c1)OCO2`, for which the MIC was greater than 50 µg/mL.
On the same count and under the same terms, for `CCC(/C=C/C(=O)NCC1(CC(=O)OC)CCCCC1)=C\c1ccc2c(c1)OCO2` the value was greater than 50 µg/mL; for `CCC(/C=C/C(=O)NC1(CC(=O)OC)CCC(C(C)(C)C)CC1)=C\c1ccc2c(c1)OCO2` (stereo unspecified), greater than 50 µg/mL; for `CCC(/C=C/C(=O)NC1(CC(=O)OC)CCCCC1)=C\c1ccc2c(c1)OCO2`, greater than 50 µg/mL.
For the compound `CCC(/C=C/C(=O)N[C@H](C(=O)OC)C(C)C)=C\c1ccc2c(c1)OCO2`, the MIC is greater than 50 µg/mL.
On the same count and under the same terms, with `O=C(O)/C=C/C=C/c1ccc2c(c1)OCO2` [PIPERIC ACID] the figure was greater than 50 µg/mL; with `CCC(/C=C/C(=O)NC1(CC(=O)OC)CCC(CC)CC1)=C\c1ccc2c(c1)OCO2` (stereo unspecified), greater than 50 µg/mL.
Consider `CCC(/C=C/C(=O)N[C@@H](C)C(=O)OC)=C\c1ccc2c(c1)OCO2`, for which the MIC was greater than 50 µg/mL.
Still for that read-out and setting: for `CCC(/C=C/C(=O)N[C@@H](CC(C)C)C(=O)OC)=C\c1ccc2c(c1)OCO2` the value was greater than 50 µg/mL; for `COC(=O)CC1(NC(=O)/C=C/C=C/c2ccc3c(c2)OCO3)CCC(C(C)(C)C)CC1` (stereo unspecified), greater than 50 µg/mL.
